This series relates to CCRIS mutagenicity, Ames/micronucleus/aberration tests. As to the kind of experiment: CCRIS mutagenicity studies.
Setting [1] is: Test System: AMES SALMONELLA TYPHIMURIUM, Strain/Indicator: TA98, Metabolic Activation: NONE, Method: PREINCUBATION
[2] abbreviates: Test System: AMES SALMONELLA TYPHIMURIUM, Strain/Indicator: TA98, Metabolic Activation: RAT, LIVER, S-9, AROCLOR 1254 (10%), Method: PREINCUBATION
[3] abbreviates: Test System: AMES SALMONELLA TYPHIMURIUM, Strain/Indicator: TA100, Metabolic Activation: NONE, Method: PREINCUBATION
The mark [4] stands for this setting: Test System: AMES SALMONELLA TYPHIMURIUM, Strain/Indicator: TA100, Metabolic Activation: RAT, LIVER, S-9, AROCLOR 1254 (10%), Method: PREINCUBATION
The mark [5] stands for this setting: Test System: AMES SALMONELLA TYPHIMURIUM, Strain/Indicator: TA1535, Metabolic Activation: HAMSTER, LIVER, S-9, AROCLOR 1254 (10%), Method: PREINCUBATION
Where [6] appears, read: Test System: AMES SALMONELLA TYPHIMURIUM, Strain/Indicator: TA1535, Metabolic Activation: NONE, Method: PREINCUBATION
Where [7] appears, read: Test System: AMES SALMONELLA TYPHIMURIUM, Strain/Indicator: TA1535, Metabolic Activation: RAT, LIVER, S-9, AROCLOR 1254 (10%), Method: PREINCUBATION
[8] abbreviates: Test System: AMES SALMONELLA TYPHIMURIUM, Strain/Indicator: TA1537, Metabolic Activation: HAMSTER, LIVER, S-9, AROCLOR 1254 (10%), Method: PREINCUBATION
[9] abbreviates: Test System: AMES SALMONELLA TYPHIMURIUM, Strain/Indicator: TA1537, Metabolic Activation: NONE, Method: PREINCUBATION
Where [10] appears, read: Test System: AMES SALMONELLA TYPHIMURIUM, Strain/Indicator: TA1537, Metabolic Activation: RAT, LIVER, S-9, AROCLOR 1254 (10%), Method: PREINCUBATION
Where [11] appears, read: Test System: AMES SALMONELLA TYPHIMURIUM, Strain/Indicator: TA98, Metabolic Activation: NONE, Method: STANDARD PLATE.
Where [12] appears, read: Test System: AMES SALMONELLA TYPHIMURIUM, Strain/Indicator: TA100, Metabolic Activation: NONE, Method: STANDARD PLATE.
Where [13] appears, read: Test System: AMES SALMONELLA TYPHIMURIUM, Strain/Indicator: TA97, Metabolic Activation: NONE, Method: PREINCUBATION

The source made the active and inactive calls. No rule for the calls is given here.

Consider `CC(N)Cc1ccccc1` (stereo not given), for which the mutagenic call runs as follows: (Test System: AMES SALMONELLA TYPHIMURIUM, Strain/Indicator: TA98, Metabolic Activation: HAMSTER, LIVER, S-9, AROCLOR 1254 (4%, 10% OR 20%), Method: PREINCUBATION) “inactive; negative”; (Test System: AMES SALMONELLA TYPHIMURIUM, Strain/Indicator: TA98, Metabolic Activation: HAMSTER, LIVER, S-9, AROCLOR 1254 (4, 10 OR 20%), Method: PREINCUBATION) “inactive; negative”; under setting [1], “inactive; negative”; under setting [2], “inactive; negative”; (Test System: AMES SALMONELLA TYPHIMURIUM, Strain/Indicator: TA100, Metabolic Activation: HAMSTER, LIVER, S-9, AROCLOR 1254 (10%), Method: PREINCUBATION) “inactive; negative”; under setting [3], “inactive; negative”. The mutagenic call under setting [4] is “inactive; negative”; the mutagenic call under setting [5] is “inactive; negative”; the mutagenic call under setting [6] was “inactive; negative”; the mutagenic call under setting [7] was “inactive; negative”; the mutagenic call under setting [8] was “inactive; negative”; the mutagenic call under setting [9] was “inactive; negative”. Also, the mutagenic call under setting [10] was “inactive; negative”.
Take `Cc1ccc(S(=O)(=O)NC(=O)Nc2ncc([N+](=O)[O-])s2)cc1`: the mutagenic call is, setting by setting: under setting [11], “inactive; negative”; under setting [12], “inactive; negative”.
Turning to `Oc1ccc2ccc3cc4ccccc4c4ccc1c2c34`, the mutagenic call under setting [1] is “inactive; negative”; the mutagenic call (Test System: AMES SALMONELLA TYPHIMURIUM, Strain/Indicator: TA98, Metabolic Activation: RAT, LIVER, S-9, AROCLOR 1254, Method: PREINCUBATION) is “active; positive”; the mutagenic call (Test System: AMES SALMONELLA TYPHIMURIUM, Strain/Indicator: TA98, Metabolic Activation: RAT, LUNG, S-9, Method: PREINCUBATION) is “active; positive”; the mutagenic call (Test System: CHINESE HAMSTER V-79, Strain/Indicator: V-79/8-AZAGUANINE, Metabolic Activation: NONE, Method: STANDARD PLATE) is “active; positive”; the mutagenic call (Test System: CHINESE HAMSTER V-79, Strain/Indicator: V-79/OUABAIN, Metabolic Activation: NONE, Method: STANDARD PLATE) is “active; positive”.
For the compound `CC12OOC1Oc1ccccc12` (stereo not given), the mutagenic call under setting [3] was “active; positive”.
As to `CNc1ccc(O)cc1`, the mutagenic call by setting is: (Test System: AMES SALMONELLA TYPHIMURIUM, Strain/Indicator: TA97, Metabolic Activation: HAMSTER, LIVER, AROCLOR 1254 (10%), Method: PREINCUBATION) “inactive; negative”; under setting [13], “inactive; negative”; (Test System: AMES SALMONELLA TYPHIMURIUM, Strain/Indicator: TA97, Metabolic Activation: RAT, LIVER, S-9, AROCLOR 1254 (10%), Method: PREINCUBATION) “active; positive”; (Test System: AMES SALMONELLA TYPHIMURIUM, Strain/Indicator: TA98, Metabolic Activation: HAMSTER, LIVER, S-9, AROCLOR 1254 (10%), Method: PREINCUBATION) “inactive; negative”; under setting [1], “inactive; negative”; under setting [2], “inactive; negative”. For the same compound, the mutagenic call under setting [3] was “inactive; negative”; the mutagenic call under setting [4] is “inactive; negative”; the mutagenic call under setting [5] was “inactive; negative”; the mutagenic call under setting [6] is “inactive; negative”; the mutagenic call under setting [7] was “inactive; negative”; the mutagenic call under setting [8] was “active; positive”. Also, the mutagenic call is, setting by setting: under setting [9], “inactive; negative”; under setting [10], “active; positive”.
Consider `O=C(O)c1ccc(ON2P(Oc3ccc(C(=O)O)cc3)N=P(Oc3ccc(C(=O)O)cc3)(Oc3ccc(C(=O)O)cc3)N(Oc3ccc(C(=O)O)cc3)P2Oc2ccc(C(=O)O)cc2)cc1` (stereo not given), for which the mutagenic call by setting is: under setting [11], “inactive; negative”; (Test System: AMES SALMONELLA TYPHIMURIUM, Strain/Indicator: TA98, Metabolic Activation: RAT, LIVER, S-9, AROCLOR 1254, Method: STANDARD PLATE) “inactive; negative”; under setting [12], “inactive; negative”; (Test System: AMES SALMONELLA TYPHIMURIUM, Strain/Indicator: TA100, Metabolic Activation: RAT, LIVER, S-9, AROCLOR 1254, Method: STANDARD PLATE) “inactive; negative”.
For `O=C1C=C(S(=O)(=O)O)c2ccccc2C1=O`, the mutagenic call reads like this: under setting [13], “inactive; negative”; (Test System: AMES SALMONELLA TYPHIMURIUM, Strain/Indicator: TA97, Metabolic Activation: RAT, LIVER, S-9, PHENOBARBITAL AND 5,6-BENZOFLAVONE, Method: PREINCUBATION) “inactive; negative”; under setting [1], “inactive; negative”; (Test System: AMES SALMONELLA TYPHIMURIUM, Strain/Indicator: TA98, Metabolic Activation: RAT, LIVER, S-9, PHENOBARBITAL AND 5,6-BENZOFLAVONE, Method: PREINCUBATION) “inactive; negative”; under setting [3], “active; positive”; (Test System: AMES SALMONELLA TYPHIMURIUM, Strain/Indicator: TA100, Metabolic Activation: RAT, LIVER, S-9, PHENOBARBITAL AND 5,6-BENZOFLAVONE, Method: PREINCUBATION) “inactive; negative”. For the same compound, the mutagenic call (Test System: AMES SALMONELLA TYPHIMURIUM, Strain/Indicator: TA102, Metabolic Activation: NONE, Method: PREINCUBATION) was “inactive; negative”; the mutagenic call (Test System: AMES SALMONELLA TYPHIMURIUM, Strain/Indicator: TA102, Metabolic Activation: RAT, LIVER, S-9, PHENOBARBITAL AND 5,6-BENZOFLAVONE, Method: PREINCUBATION) was “inactive; negative”; the mutagenic call (Test System: AMES SALMONELLA TYPHIMURIUM, Strain/Indicator: TA104, Metabolic Activation: NONE, Method: PREINCUBATION) was “active; positive”; the mutagenic call (Test System: AMES SALMONELLA TYPHIMURIUM, Strain/Indicator: TA104, Metabolic Activation: RAT, LIVER, S-9, PHENOBARBITAL AND 5,6-BENZOFLAVONE, Method: PREINCUBATION) is “inactive; negative”; the mutagenic call under setting [6] is “inactive; negative”; the mutagenic call (Test System: AMES SALMONELLA TYPHIMURIUM, Strain/Indicator: TA1535, Metabolic Activation: RAT, LIVER, S-9, PHENOBARBITAL AND 5,6-BENZOFLAVONE, Method: PREINCUBATION) is “inactive; negative”. Further, the mutagenic call by setting is: under setting [9], “inactive; negative”; (Test System: AMES SALMONELLA TYPHIMURIUM, Strain/Indicator: TA1537, Metabolic Activation: RAT, LIVER, S-9, PHENOBARBITAL AND 5,6-BENZOFLAVONE, Method: PREINCUBATION) “inactive; negative”; (Test System: AMES SALMONELLA TYPHIMURIUM, Strain/Indicator: TA1538, Metabolic Activation: NONE, Method: PREINCUBATION) “inactive; negative”; (Test System: AMES SALMONELLA TYPHIMURIUM, Strain/Indicator: TA1538, Metabolic Activation: RAT, LIVER, S-9, PHENOBARBITAL AND 5,6-BENZOFLAVONE, Method: PREINCUBATION) “inactive; negative”; (Test System: AMES SALMONELLA TYPHIMURIUM, Strain/Indicator: TA2637, Metabolic Activation: NONE, Method: PREINCUBATION) “active; positive”; (Test System: AMES SALMONELLA TYPHIMURIUM, Strain/Indicator: TA2637, Metabolic Activation: RAT, LIVER, S-9, PHENOBARBITAL AND 5,6-BENZOFLAVONE, Method: PREINCUBATION) “inactive; negative”.
Regarding `CC(=O)N[C@@H](CS/C(F)=C(\F)C(F)(F)F)C(=O)O`, for the setting “Test System: AMES SALMONELLA TYPHIMURIUM, Strain/Indicator: TA100, Metabolic Activation: RAT, KIDNEY, S-9, AROCLOR 1254, Method: STANDARD PLATE”, the mutagenic call was “inactive; negative”.
In the case of `Cc1ccc(NO)c(C)c1`, the mutagenic call under setting [3] was “active; positive” and the mutagenic call (Test System: AMES SALMONELLA TYPHIMURIUM, Strain/Indicator: TA100, Metabolic Activation: RAT, LIVER, S-9, PCB, Method: PREINCUBATION) is “active; positive”.

(Values after PubChem BioAssay AID1259407 (Chemical Carcinogenesis Research Information System (CCRIS), 2018).)
